Assay results as given in US9920045B2, “Solid state forms of a PDE10 inhibitor” (Omeros Corporation, priority 2015, dated 2018).

How the values were obtained:
[1] = Drying study / ambient exposure, form followed by XRPD; assay type: physicochemical
Procedure: To understand a change of Form F to shifted Form F, a drying study was conducted wherein a variable hydrate having shifted Form F was dried overnight under vacuum at 50° C. […] This study confirms that Form F absorbs moisture from the atmosphere and depending upon the relative humidity of the environment either remains Form F or converts to Shifted Form F.
XRPD patterns were collected with a PANalytical CubiX-Pro XRD diffractometer using an incident beam of Cu radiation produced using an Optix long, fine-focus source. An elliptically graded multilayer mirror was used to focus CuKα X-rays (1.54 Å) through the specimen and onto the detector. Prior to the analysis, a silicon specimen (NIST SRM 640d) was analyzed to verify the observed position of the Si 111 peak is consistent with the NIST-certified position. A specimen of the sample was sandwiched between 3-μm-thick films and analyzed in transmission geometry. A beam-stop, short antiscatter extension, and antiscatter knife edge were used to minimize the background generated by air. Soller slits for the incident and diffracted beams were used to minimize broadening from axial divergence. Diffraction patterns were collected using a scanning position-sensitive detector (X'Celerator) located 240 mm from the specimen and Data Collector software v. 2.2b. The tube power was set to 45 kV and 40 mA. […]

[2] = Dynamic vapor sorption (gravimetric moisture sorption analysis); assay type: physicochemical; settings: for hygroscopicity by moisture sorption analysis / moisture absorbed at 60% RH / moisture absorbed at 90% RH: 25° C.; for XRPD of the post moisture sorption sample: dried at 0% RH and 60° C. for 2 hours after sorption; for moisture absorbed at 60% RH / moisture absorbed at 90% RH: moisture sorption
Procedure: Gravimetric moisture sorption experiments were carried out on all materials by first holding the sample at 40% RH and 25° C. until an equilibrium weight was reached or for a maximum of four hours. The sample was then subjected to an isothermal (25° C.) adsorption scan from 40 to 90% RH in steps of 10%. The sample was allowed to equilibrate to an asymptotic weight at each point for a maximum of four hours. Following adsorption, a desorption scan from 85 to 5% RH (at 25° C.) was run in steps of −10%, again allowing a maximum of four hours for equilibration to an asymptotic weight. An adsorption scan was then performed from 0% RH to 40% RH in steps of +10% RH. The sample was then dried for no less than two hours at 60° C. and the resulting solid analyzed by XRPD.
Compound (I), Form F, was further characterized by thermal analysis (DSC and TGA), Karl Fischer titration, and DVS. […] (FIG. 5). […] (FIG. 6). The weight loss observed on TGA corresponds to the melt on DSC. […] The material absorbed 2.0 wt % moisture at 60% RH and 2.4 wt % moisture at 90% RH (FIG. 7). […] Karl Fisher analysis of the sample indicates a moisture content of 0.6 wt %, which was performed when lab humidity was around 20% RH.
Compound (I), Shifted Form F, was further characterized by thermal analysis (DSC and TGA), Karl Fischer titration, and DVS. […] (FIG. 9). […] (FIG. 10). […] The material absorbs 2.4 wt % moisture at 60% RH and 2.9 wt % moisture at 90% RH (FIG. 11). […] The water content by KF is higher than the weight loss detected by TGA. It is possible that some moisture was slowly carried away by nitrogen stream and not reflected in the weight loss attributed to the thermal event. Characterization of shifted Form F was performed when lab humidity was between 50-60% RH.

XRPD of the dried solid ([1]; dried overnight under vacuum at 50° C.) | hygroscopicity by moisture sorption analysis [2] | XRPD of the post moisture sorption sample [2] | moisture absorbed at 60% RH [2] [wt %] | moisture absorbed at 90% RH [2] [wt %] | form after exposure to ambient conditions ([1]; dried material exposed to ambient conditions for 5 days) | SMILES
consistent with Form F | moderately hygroscopic | consistent with shifted Form F | 2.4 | 2.9 | – | CCOC(C(=O)c1ccc(-c2cc(OC)c(Cl)c(OC)c2)o1)c1ccc(-c2nnc(C)s2)cc1 (stereo not shown) [shifted Form F, 1-(5-(4-chloro-3,5-dimethoxyphenyl)furan-2-yl)-2-ethoxy-2-(4-(5-methyl-1,3,4-thiadiazol-2-yl)phenyl)ethanone]
– | moderately hygroscopic | consistent with Form F | 2.0 | 2.4 | converted back to shifted Form F | CCOC(C(=O)c1ccc(-c2cc(OC)c(Cl)c(OC)c2)o1)c1ccc(-c2nnc(C)s2)cc1 (stereo not shown) [Form F, 1-(5-(4-chloro-3,5-dimethoxyphenyl)furan-2-yl)-2-ethoxy-2-(4-(5-methyl-1,3,4-thiadiazol-2-yl)phenyl)ethanone]
